Numbers after ± are expanded uncertainties.
Experiment: activity coefficient (dimensionless); of the first substance listed, at infinite dilution; xn = mol fraction of the nth substance listed
Settings: 101.33 kPa, Liquid, Chromatography, x1 = 0

For `Cc1ccccc1C` [1,2-dimethylbenzene] + CC[N+]1(C)CCOCC1.N#CN=C=[N-], the activity coefficient (318.15 K) was 10.8 ± 0.7, the activity coefficient (328.15 K) was 11.1 ± 0.8 and the activity coefficient (338.15 K) was 11.4 ± 0.8. The activity coefficient (348.15 K) was 11.7 ± 0.8, the activity coefficient (358.15 K) was 12 ± 0.8 and the activity coefficient (368.15 K) was 12.4 ± 0.8.
`Cc1cccc(C)c1` [1,3-dimethylbenzene] + CC[N+]1(C)CCOCC1.N#CN=C=[N-] gave an activity coefficient (318.15 K) of 13.8 ± 0.9, an activity coefficient (328.15 K) of 14.1 ± 1 and an activity coefficient (338.15 K) of 14.4 ± 1. For the same compound, the activity coefficient (348.15 K) was 14.7 ± 1, the activity coefficient (358.15 K) was 14.9 ± 1 and the activity coefficient (368.15 K) was 15.2 ± 1.
Compound `Cc1ccc(C)cc1` [1,4-dimethylbenzene] + CC[N+]1(C)CCOCC1.N#CN=C=[N-] has an activity coefficient (318.15 K) of 13.4 ± 0.9, an activity coefficient (328.15 K) of 13.7 ± 0.9 and an activity coefficient (338.15 K) of 14 ± 1. It also gave an activity coefficient (348.15 K) of 14.3 ± 1, an activity coefficient (358.15 K) of 14.6 ± 1 and an activity coefficient (368.15 K) of 14.9 ± 1.
Compound `C1COCCO1` [1,4-dioxane] + CC[N+]1(C)CCOCC1.N#CN=C=[N-] has an activity coefficient (318.15 K) of 1.57 ± 0.1, an activity coefficient (328.15 K) of 1.69 ± 0.11 and an activity coefficient (338.15 K) of 1.82 ± 0.12. For the same compound, the activity coefficient (348.15 K) was 1.94 ± 0.13, the activity coefficient (358.15 K) was 2.06 ± 0.14 and the activity coefficient (368.15 K) was 2.19 ± 0.15.
`C=CCCCCCCCC` [1-decene] + CC[N+]1(C)CCOCC1.N#CN=C=[N-] gave an activity coefficient (318.15 K) of 1200 ± 83, an activity coefficient (328.15 K) of 1070 ± 74 and an activity coefficient (338.15 K) of 960 ± 66. The activity coefficient (348.15 K) was 865 ± 60, the activity coefficient (358.15 K) was 785 ± 54 and the activity coefficient (368.15 K) was 718 ± 49.
`C=CCCCCC` [1-heptene] + CC[N+]1(C)CCOCC1.N#CN=C=[N-] gave an activity coefficient (318.15 K) of 288 ± 20, an activity coefficient (328.15 K) of 268 ± 18 and an activity coefficient (338.15 K) of 251 ± 17. It also gave an activity coefficient (348.15 K) of 236 ± 16, an activity coefficient (358.15 K) of 222 ± 15 and an activity coefficient (368.15 K) of 210 ± 14.
`C#CCCCCC` [1-heptyne] + CC[N+]1(C)CCOCC1.N#CN=C=[N-] showed an activity coefficient (318.15 K) of 44.9 ± 3.1, an activity coefficient (328.15 K) of 46.3 ± 3.2 and an activity coefficient (338.15 K) of 47.6 ± 3.3. The activity coefficient (348.15 K) was 49 ± 3.4, the activity coefficient (358.15 K) was 50.3 ± 3.4 and the activity coefficient (368.15 K) was 51.6 ± 3.5.
Work on `C#CCCCC` [1-hexyne] + CC[N+]1(C)CCOCC1.N#CN=C=[N-] yielded an activity coefficient (318.15 K) of 24.8 ± 1.7, an activity coefficient (328.15 K) of 25.6 ± 1.8 and an activity coefficient (338.15 K) of 26.4 ± 1.8. The activity coefficient (348.15 K) was 27.4 ± 1.9, the activity coefficient (358.15 K) was 28.1 ± 1.9 and the activity coefficient (368.15 K) was 28.9 ± 2.
With `CCC[N+](=O)[O-]` [1-nitropropane] + CC[N+]1(C)CCOCC1.N#CN=C=[N-] the activity coefficient (318.15 K) was 2.29 ± 0.16, the activity coefficient (328.15 K) was 2.39 ± 0.16 and the activity coefficient (338.15 K) was 2.49 ± 0.17. It also gave an activity coefficient (348.15 K) of 2.59 ± 0.18, an activity coefficient (358.15 K) of 2.68 ± 0.18 and an activity coefficient (368.15 K) of 2.78 ± 0.19.
Compound `C#CCCCCCC` [1-octyne] + CC[N+]1(C)CCOCC1.N#CN=C=[N-] has an activity coefficient (318.15 K) of 84.2 ± 5.8, an activity coefficient (328.15 K) of 84.6 ± 5.8 and an activity coefficient (338.15 K) of 84.9 ± 5.8. For the same compound, the activity coefficient (348.15 K) was 85.6 ± 5.9, the activity coefficient (358.15 K) was 86.1 ± 5.9 and the activity coefficient (368.15 K) was 86.8 ± 5.9.
`C#CCCC` [1-pentyne] + CC[N+]1(C)CCOCC1.N#CN=C=[N-] showed an activity coefficient (318.15 K) of 14.3 ± 1, an activity coefficient (328.15 K) of 14.8 ± 1 and an activity coefficient (338.15 K) of 15.4 ± 1.1. The activity coefficient (348.15 K) was 15.9 ± 1.1, the activity coefficient (358.15 K) was 16.5 ± 1.1 and the activity coefficient (368.15 K) was 17 ± 1.2.
`CC(C)CC(C)(C)C` [2,2,4-trimethylpentane] + CC[N+]1(C)CCOCC1.N#CN=C=[N-] gave an activity coefficient (298.15 K) of 1220 ± 84, an activity coefficient (308.15 K) of 1070 ± 74 and an activity coefficient (318.15 K) of 951 ± 66. For the same compound, the activity coefficient (328.15 K) was 853 ± 59 and the activity coefficient (338.15 K) was 768 ± 53.
Compound `CCOC(C)(C)C` [2-ethoxy-2-methylpropane] + CC[N+]1(C)CCOCC1.N#CN=C=[N-] has an activity coefficient (328.15 K) of 105 ± 7, an activity coefficient (338.15 K) of 108 ± 7 and an activity coefficient (348.15 K) of 111 ± 8. It also gave an activity coefficient (358.15 K) of 113 ± 8 and an activity coefficient (368.15 K) of 116 ± 8.
With `CCC(C)(C)OC` [2-methoxy-2-methylbutane] + CC[N+]1(C)CCOCC1.N#CN=C=[N-] the activity coefficient (328.15 K) was 55.7 ± 3.8, the activity coefficient (338.15 K) was 57.9 ± 4 and the activity coefficient (348.15 K) was 60 ± 4.1. The activity coefficient (358.15 K) was 62.2 ± 4.3 and the activity coefficient (368.15 K) was 64.3 ± 4.4.
Work on `COC(C)(C)C` [2-methoxy-2-methylpropane] + CC[N+]1(C)CCOCC1.N#CN=C=[N-] yielded an activity coefficient (328.15 K) of 33.1 ± 2.3, an activity coefficient (338.15 K) of 34.4 ± 2.4 and an activity coefficient (348.15 K) of 35.6 ± 2.4. It also gave an activity coefficient (358.15 K) of 36.8 ± 2.5 and an activity coefficient (368.15 K) of 38 ± 2.6.
Compound `CC(C)CO` [2-methyl-1-propanol] + CC[N+]1(C)CCOCC1.N#CN=C=[N-] has an activity coefficient (318.15 K) of 3.01 ± 0.2, an activity coefficient (328.15 K) of 2.93 ± 0.2 and an activity coefficient (338.15 K) of 2.86 ± 0.19. It also gave an activity coefficient (348.15 K) of 2.79 ± 0.19, an activity coefficient (358.15 K) of 2.73 ± 0.19 and an activity coefficient (368.15 K) of 2.67 ± 0.18.
For `CC(C)(C)O` [2-methylpropan-2-ol] + CC[N+]1(C)CCOCC1.N#CN=C=[N-], the activity coefficient (318.15 K) was 2.77 ± 0.19, the activity coefficient (328.15 K) was 2.78 ± 0.19 and the activity coefficient (338.15 K) was 2.8 ± 0.19. The activity coefficient (348.15 K) was 2.82 ± 0.19, the activity coefficient (358.15 K) was 2.83 ± 0.19 and the activity coefficient (368.15 K) was 2.85 ± 0.19.
`C=C(C)c1ccccc1` [(1-methylethenyl)benzene] + CC[N+]1(C)CCOCC1.N#CN=C=[N-] gave an activity coefficient (318.15 K) of 10.5 ± 0.7, an activity coefficient (328.15 K) of 11.1 ± 0.8 and an activity coefficient (338.15 K) of 11.6 ± 0.8. For the same compound, the activity coefficient (348.15 K) was 12.1 ± 0.8, the activity coefficient (358.15 K) was 12.6 ± 0.9 and the activity coefficient (368.15 K) was 13.1 ± 0.9.
`CC(C)=O` [acetone] + CC[N+]1(C)CCOCC1.N#CN=C=[N-] gave an activity coefficient (318.15 K) of 1.61 ± 0.11, an activity coefficient (328.15 K) of 1.7 ± 0.11 and an activity coefficient (338.15 K) of 1.8 ± 0.12. The activity coefficient (348.15 K) was 1.9 ± 0.13, the activity coefficient (358.15 K) was 1.99 ± 0.14 and the activity coefficient (368.15 K) was 2.09 ± 0.14.
`CC#N` [acetonitrile] + CC[N+]1(C)CCOCC1.N#CN=C=[N-] gave an activity coefficient (318.15 K) of 0.966 ± 0.061, an activity coefficient (328.15 K) of 1.01 ± 0.06 and an activity coefficient (338.15 K) of 1.06 ± 0.07. For the same compound, the activity coefficient (348.15 K) was 1.11 ± 0.07, the activity coefficient (358.15 K) was 1.16 ± 0.07 and the activity coefficient (368.15 K) was 1.21 ± 0.08.
For `c1ccccc1` [benzene] + CC[N+]1(C)CCOCC1.N#CN=C=[N-], the activity coefficient (318.15 K) was 4.46 ± 0.3, the activity coefficient (328.15 K) was 4.62 ± 0.31 and the activity coefficient (338.15 K) was 4.76 ± 0.32. It also gave an activity coefficient (348.15 K) of 4.91 ± 0.33, an activity coefficient (358.15 K) of 5.05 ± 0.34 and an activity coefficient (368.15 K) of 5.2 ± 0.35.
Compound `CCCCO` [butan-1-ol] + CC[N+]1(C)CCOCC1.N#CN=C=[N-] has an activity coefficient (318.15 K) of 3.08 ± 0.21, an activity coefficient (328.15 K) of 3.02 ± 0.21 and an activity coefficient (338.15 K) of 2.98 ± 0.2. The activity coefficient (348.15 K) was 2.94 ± 0.2, the activity coefficient (358.15 K) was 2.9 ± 0.2 and the activity coefficient (368.15 K) was 2.86 ± 0.19.
`CCC(C)O` (configuration not stated) [butan-2-ol] + CC[N+]1(C)CCOCC1.N#CN=C=[N-] showed an activity coefficient (318.15 K) of 2.98 ± 0.2, an activity coefficient (328.15 K) of 2.94 ± 0.2 and an activity coefficient (338.15 K) of 2.9 ± 0.2. It also gave an activity coefficient (348.15 K) of 2.86 ± 0.19, an activity coefficient (358.15 K) of 2.83 ± 0.19 and an activity coefficient (368.15 K) of 2.81 ± 0.19.
In the case of `CCCC=O` [butanal] + CC[N+]1(C)CCOCC1.N#CN=C=[N-], the activity coefficient (318.15 K) is reported as 3.51 ± 0.24, the activity coefficient (328.15 K) is reported as 3.65 ± 0.25 and the activity coefficient (338.15 K) is reported as 3.79 ± 0.26. The activity coefficient (348.15 K) was 3.92 ± 0.27, the activity coefficient (358.15 K) was 4.04 ± 0.28 and the activity coefficient (368.15 K) was 4.17 ± 0.28.
Work on `C1CCCCCC1` [cycloheptane] + CC[N+]1(C)CCOCC1.N#CN=C=[N-] yielded an activity coefficient (318.15 K) of 215 ± 15, an activity coefficient (328.15 K) of 202 ± 14 and an activity coefficient (338.15 K) of 189 ± 13. The activity coefficient (348.15 K) was 179 ± 12, the activity coefficient (358.15 K) was 169 ± 12 and the activity coefficient (368.15 K) was 161 ± 11.
`C1CCCCC1` [cyclohexane] + CC[N+]1(C)CCOCC1.N#CN=C=[N-] showed an activity coefficient (318.15 K) of 168 ± 12, an activity coefficient (328.15 K) of 152 ± 10 and an activity coefficient (338.15 K) of 138 ± 9. The activity coefficient (348.15 K) was 126 ± 9, the activity coefficient (358.15 K) was 115 ± 8 and the activity coefficient (368.15 K) was 106 ± 7.
With `C1=CCCCC1` [cyclohexene] + CC[N+]1(C)CCOCC1.N#CN=C=[N-] the activity coefficient (318.15 K) was 50.7 ± 3.5, the activity coefficient (328.15 K) was 50 ± 3.4 and the activity coefficient (338.15 K) was 49.4 ± 3.4.
`C1CCCCCCC1` [cyclooctane] + CC[N+]1(C)CCOCC1.N#CN=C=[N-] showed an activity coefficient (318.15 K) of 313 ± 22, an activity coefficient (328.15 K) of 293 ± 20 and an activity coefficient (338.15 K) of 273 ± 19. The activity coefficient (348.15 K) was 257 ± 18, the activity coefficient (358.15 K) was 242 ± 17 and the activity coefficient (368.15 K) was 229 ± 16.
Work on `CCCCCCCCCC` [decane] + CC[N+]1(C)CCOCC1.N#CN=C=[N-] yielded an activity coefficient (318.15 K) of 2230 ± 150, an activity coefficient (328.15 K) of 2030 ± 140 and an activity coefficient (338.15 K) of 1880 ± 130. For the same compound, the activity coefficient (348.15 K) was 1740 ± 120, the activity coefficient (358.15 K) was 1610 ± 110 and the activity coefficient (368.15 K) was 1500 ± 100.

Source: the NIST ThermoML archive (doi:10.1016/j.jct.2018.02.014)
